# Assay results from patent publication US20160039936A1, “FIBROBLAST GROWTH FACTOR RECEPTOR INHIBITION FOR THE TREATMENT OF DISEASE” (UNIVERSITY OF MIAMI, priority 2011, published 2016).
# B1: FGF23: recombinant mouse FGF23, 6His-tagged Tyr25-Val251 (Arg179Gln) (R&D Systems) (protein)
# chain: YPDTSPLLGSNWGSLTHLYTATARTSYHLQIHRDGHVDGTPHQTIYSALMITSEDAGSVVITGAMTRRFLCMDLHGNIFGSLHFSPENCKFRQWTLENGYDVYLSQKHHYLVSLGRAKRIFQPGTNPPPFSQFLARRNEVPLLHFYTVRPRRHTQSAEDPPERDPLNVLKPRPRATPVPVSCSRELPSAEEGGPAASDPLGVLRRGRGDARGGAGGADRCRPFPRFV
# modifications: left off: small tags and cut ends
# Legend:
# [1] = tested on: 5/6 nephrectomy rat model of CKD; test: 5/6 nephrectomy rat model of CKD; assay type: in vivo; conditions: PD173074 1 mg/kg/day i.p. 14 days
# Excerpt: FGFR activity is required for the development of LVH in a rat model of CKD Since the cardiac effects of FGF23 are mediated by FGFR activation and could be blocked in vitro by the FGFR inhibitor PD173074, we tested the hypothesis that PD173074 could also attenuate LVH in the 5/6 nephrectomy rat model of CKD, which is known to develop increased FGF23 levels, severe hypertension, and LVH. We performed 5/6 nephrectomy in male Sprague Dawley rats using standard surgical techniques, and administered by intra-peritoneal injection either 1 mg/kg body weight/day of PD173074 dissolved in PBS (n=6) or vehicle alone (n=6) beginning one hour after surgery and continued daily for 14 days (FIG. 7). As a negative control, 6 rats underwent sham nephrectomy. At day 14 after surgery, we measured blood pressure, performed echocardiograms, collected blood for laboratory testing, sacrificed the animals and examined their hearts. […] Compared with vehicle, PD 173074 treatment led to decreased left ventricular mass, reduced ratio of heart weight to total body weight, decreased left ventricular wall thickness and relative wall thickness, decreased cross-sectional surface area of individual cardiac myocytes, and increased left ventricular end diastolic volume and ejection fraction (FIG. 7A-C). […]
# Kidney disease was induced in Sprague Dawley rats using the 5/6 nephrectomy method (Di Marco et al., 2014). Rats were randomized to 3 groups of 6 animals each: sham nephrectomy, or 5/6 nephrectomy plus intra-peritoneal injections of vehicle (PBS) or anti-FGFR4 blocking antibody (human monoclonal, U3-11; U3Pharma) at 25 mg/kg/day every 3 days beginning one hour after surgery. High-resolution echocardiography (15 MHz) was performed at 14 days after surgery to assess LV mass, wall and chamber dimensions, and systolic and diastolic function using an HDI 5000 Ultrasound system (Philips, Best, The Netherlands). M-mode, 2D and 3D recordings were obtained under general anesthesia delivered through a nose mask while heart rate and body temperature were maintained. Blood pressure was measured in conscious rats using a computerized rat-tail cuff technique (CODA, Kent Scientific Corporation). On day 14, animals were sacrificed and the hearts were isolated and prepared for histological and serological analyses.
# Short-axis heart sections were stained with hematoxylin and eosin (VWR) and used to quantify myocardial thickness by measuring the distance from the inner to the outer myocardial edges at the mid-chamber zone. Mean left ventricular free wall thickness was calculated from seven measurements of wall thickness taken at 0, 30, 60, 90, 120, 150 and 180 degrees along the hemi-circle of the short axis of the free wall. Images were taken on a Nikon SMZ 1500 microscope using 0.75× magnification.
# We measured cross-sectional area of individual cardiac myocytes in paraffin-embedded short-axis sections of mouse and rat hearts. Briefly, 7 μm thick sections were deparaffinized according to our established protocols (Faul et al., 2011). To visualize cellular borders, fixed tissue was incubated with wheat germ agglutinin (WGA) conjugated to Alexa Fluor555 (Invitrogen) at 1 mg/ml in PBS containing 10 mM sodium azide. Immunofluorescence images were taken on a Leica TCS-SP5 confocal microscope with a 63× oil objective. Leica AF6000 fluorescence software was used to quantify cross-sectional area of 25 cells per field at four fields along the mid-chamber free wall based on WGA-positive staining.
# Short-axis cardiac sections from mice and rats were stained with Picrosirius Red (Sigma-Aldrich) and used to quantify myocardial fibrosis. Sections were deparaffinized, counterstained with hematoxylin (VWR) and incubated in Picrosirius Red solution for 60 minutes. After washing in acidified water, sections were dehydrated in ascending ethanol series and mounted in non-aqueous mounting media. […]
# [2] = biological target: T1, FGFR4 (Rattus norvegicus, UniProt Q498D6); test: Binding of PLCγ to FGFR4 in NRVM (immunoprecipitation); assay type: cell-based; conditions: 30 minutes, vs PBS or FGF2
# T1 construct: endogenous in cells; host or cells: isolated neonatal rat ventricular myocytes (NRVM)
# Procedure: HEK293 cells in 10 cm-dishes were treated with growth factors for 30 minutes, cells were scraped using 1 ml IP buffer (50 mM Tris-HCl pH7.5, 150 mM NaCl, 5 mM MgCl2, 2 mM EGTA, 1% Triton X-100, 5% Glycerol, protease and phosphatase inhibitors), and protein lysates were prepared as described above. V5-tagged proteins were immunoprecipitated using 25 μl of anti-V5 agarose beads (Sigma-Aldrich). After 5 washes in IP buffer, proteins were eluted in 100 μl of sample buffer and analyzed by SDS-PAGE and immunoblotting. For endogenous immunoprecipitation studies from NRVM, cells in 10cm-dishes were treated with growth factors for 30 minutes. Some cells were pre-treated with FGFR4 blocking antibody at 10 μg/ml for 1 hour (human monoclonal, U3-11; U3Pharma). […] We added 50 μl of a 1:1 mix of Protein A on sepharose beads and Protein G on agarose beads that were previously equilibrated in RIPA buffer, followed by incubation at 4° C. under rotation for 2 hours, protein elution in sample buffer, and SDS-PAGE and Western blot analyses.
# [3] = tested on: HEK293 cells; test: FGF-FGFR-dependent signaling in HEK293 cells (Western blot, immunoprecipitation); assay type: cell-based; conditions: HEK293 expressing wild-type FGFR4, within 6 hours
# T1 sequence (Q498D6 17-800): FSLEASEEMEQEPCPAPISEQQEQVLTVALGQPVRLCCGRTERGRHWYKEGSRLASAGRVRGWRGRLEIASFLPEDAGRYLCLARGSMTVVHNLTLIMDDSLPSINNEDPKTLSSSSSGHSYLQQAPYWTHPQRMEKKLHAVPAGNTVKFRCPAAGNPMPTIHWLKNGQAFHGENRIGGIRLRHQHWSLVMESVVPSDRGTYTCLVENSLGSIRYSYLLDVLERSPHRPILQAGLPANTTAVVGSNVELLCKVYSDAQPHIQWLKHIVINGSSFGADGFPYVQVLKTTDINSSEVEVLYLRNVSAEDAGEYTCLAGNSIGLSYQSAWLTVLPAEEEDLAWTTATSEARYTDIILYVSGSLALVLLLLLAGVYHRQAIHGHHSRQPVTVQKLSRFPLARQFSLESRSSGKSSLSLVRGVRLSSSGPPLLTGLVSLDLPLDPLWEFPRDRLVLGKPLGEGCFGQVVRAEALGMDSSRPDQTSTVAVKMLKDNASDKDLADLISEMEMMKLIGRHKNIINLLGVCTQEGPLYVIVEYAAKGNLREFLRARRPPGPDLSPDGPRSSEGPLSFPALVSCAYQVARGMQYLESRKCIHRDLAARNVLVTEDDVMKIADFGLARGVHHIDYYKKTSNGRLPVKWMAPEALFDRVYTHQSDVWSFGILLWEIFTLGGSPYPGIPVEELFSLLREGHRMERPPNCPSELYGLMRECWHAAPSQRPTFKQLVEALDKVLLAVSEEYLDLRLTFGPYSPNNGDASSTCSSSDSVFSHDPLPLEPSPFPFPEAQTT
Molecule,5/6 nephrectomy-induced increased cardiac β-MHC and ANP and decreased MCAD mRNA [1],blood pressure vs vehicle [1],renal function and serum FGF23 levels vs vehicle [1],LVH ([1]; vs vehicle),cross-sectional surface area of individual cardiac myocytes ([1]; vs vehicle),left ventricular end diastolic volume and ejection fraction ([1]; vs vehicle),left ventricular mass ([1]; vs vehicle),left ventricular wall thickness and relative wall thickness ([1]; vs vehicle),ratio of heart weight to total body weight ([1]; vs vehicle),hepatic expression of p-ERK protein levels ([1]; vs sham and 5/6 nephrectomized rats),levels of co-purified FGFR4 in anti-PLCγ eluates [2],RCAN1-4 levels [3]
CCN(CC)CCCCNc1ncc2cc(-c3cc(OC)cc(OC)c3)c(NC(=O)NC(C)(C)C)nc2n1 [PD173074],not observed,no difference was detected,no differences,significantly attenuated,decreased,increased,decreased,decreased,reduced,decreased,,
B1,,,,,,,,,,,elevated,increases
